In US20210040118A1, “IMMUNOMODULATORS, COMPOSITIONS AND METHODS THEREOF” (BETTA PHARMACEUTICALS CO., LTD, priority 2018, published 2021) one finds IC50 data, which are given here for 10 compounds.

Each structure is given as a SMILES string.

This test addresses T1, PD-1/PD-L1 (Homo sapiens, UniProt Q9NZQ7).
T1 construct: Recombinant human PD-L1 protein (19-238) with a His-tag at the C-terminus; purchased AcroBiosystems PD1-H5229 (PD-L1); PD1-H5257 (PD-1)
Put plainly: PD-1/PD-L1 homogenous time-resolved fluorescence (HTRF) binding assay. The settings on record: recombinant human PD-L1 (19-238) His-tag / human PD-1 (25-167) Fc tag, class symbols. The protocol: Resolved Fluorescence (HTRF) Binding Assay
The assays were conducted in a standard black 384-well polystyrene plate with a final volume of 20 μL. Inhibitors were first serially diluted in DMSO and then added to the plate wells before the addition of other reaction components. The final concentration of DMSO in the assay was 1%. The assays were carried out at 25° C. in the PBS buffer (pH 7.4) with 0.05% Tween-20 and 0.1% BSA. Recombinant human PD-L1 protein (19-238) with a His-tag at the C-terminus was purchased from AcroBiosy stems (PD1-H5229). Recombinant human PD-1 protein (25-167) with Fc tag at the C-terminus was also purchased from AcroBiosystems (PD1-H5257). PD-L1 and PD-1 proteins were diluted in the assay buffer and 10 μL was added to the plate well. Plates were centrifuged and proteins were preincubated with inhibitors for 40 min. The incubation was followed by the addition of […] of HTRF detection buffer supplemented with Europium cryptate-labeled anti-human IgG (PerkinElmer-AD0212) specific for Fc and anti-His antibody conjugated to SureLight®-Allophycocyanin (APC, PerkinElmer-AD0059H). After centrifugation, the plate was incubated at 25° C. for 60 min. Before reading on a PHERAstar FS plate reader (665 nm/620 nm ratio). Final concentrations in the assay were […] PD1, 10 nM PD-L1, 1 nM europium anti-human IgG and 20 nM anti-His-Allophycocyanin. IC50 determination was performed by fitting the curve of percent control activity versus the log of the inhibitor concentration using the GraphPad Prism 5.0 software.
Data obtained for the Example compounds using the PD-1/PD-L1 homogenous time-resolved fluorescence (HTRF) binding assay described in Example A is provided in Table 4.

T1 sequence (Q9NZQ7 19-238): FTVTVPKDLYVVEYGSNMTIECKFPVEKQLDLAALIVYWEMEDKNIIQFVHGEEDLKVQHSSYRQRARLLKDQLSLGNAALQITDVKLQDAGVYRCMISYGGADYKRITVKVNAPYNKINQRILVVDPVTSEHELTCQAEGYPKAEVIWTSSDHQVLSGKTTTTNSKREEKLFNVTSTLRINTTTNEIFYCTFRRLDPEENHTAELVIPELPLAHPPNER

Turning to `Cc1c(NC(=O)c2nc3c(s2)CN(C(C)C(=O)O)CC3)cccc1-c1cccc(NC(=O)c2nc3c(s2)CN(C(C)C(=O)O)CC3)c1C` (stereo not shown) [Example 79, 2,2′-((((2,2′-dimethyl-[1,1′-biphenyl]-3,3′-diyl)bis(azanediyl))bis(carbonyl))bis(6,7-dihydrothiazolo[5,4-c]pyridine-2,5(4H)-diyl))dipropionic acid], the concentration for half-maximal inhibition (IC50) was < 25 nM.

Consider `O=C(Nc1cccc(-c2cccc(NC(=O)c3ncc(CNCCO)s3)c2Cl)c1Cl)c1ncc(CNCCO)s1` [Example 66, N,N′-(2,2′-dichloro-[1,1′-biphenyl]-3,3′-diyl)bis(5-(((2-hydroxyethyl)amino)methyl)thiazole-2-carboxamide)], for which the half-inhibitory concentration (IC50) was < 25 nM. Next, `CC(=O)N1CCc2nc(C(=O)Nc3cccc(-c4cccc(NC(=O)c5ccc6c(n5)CCNC6)c4C)c3C)ccc2C1` [Example 182, 6-acetyl-N-(2,2′-dimethyl-3′-(5,6,7,8-tetrahydro-1,6-naphthyridine-2-carboxamido)-[1,1′-biphenyl]-3-yl)-5,6,7,8-tetrahydro-1,6-naphthyridine-2-carboxamide]: < 25 nM. Next, `Cc1c(NC(=O)c2nnc(CN)s2)cccc1-c1cccc(NC(=O)c2nnc(CN)s2)c1C` [Example 20, N,N′-(2,2′-dimethyl-[1,1′-biphenyl]-3,3′-diyl)bis(5-(aminomethyl)-1,3,4-thiadiazole-2-carboxamide)]: < 25 nM; `O=C(c1ncc(CNCCO)s1)N1CCc2c(-c3cccc4c3CCN4C(=O)c3ncc(CNCCO)s3)cccc21` [Example 70, [4,4′-biindoline]-1,1′-diylbis((5-(((2-hydroxyethyl)amino)methyl)thiazol-2-yl)methanone)]: < 25 nM; `Cc1nc(C(=O)Nc2cccc(-c3cccc(NC(=O)c4nc(C)c(CN5CCCC[C@H]5C(=O)O)s4)c3Cl)c2C)sc1CN1CCCC[C@H]1C(=O)O` [Example 54, (2S,2'S)-1,1′-(2,2′-(2-chloro-2′-methylbiphenyl-3,3′-diyl)bis(azanediyl)bis(oxomethylene)bis(4-methylthiazole-5,2-diyl))bis(methylene)dipiperidine-2-carboxylic acid]: < 25 nM. Take `Cc1c(Nc2nccc3cc(CNC[C@@H](O)CC(=O)O)cnc23)cccc1-c1cccc(Nc2nccc3cc(CNC[C@@H](O)CC(=O)O)cnc23)c1C` [Example 143, (3S,3'S)-4,4′-(((((2,2′-dimethyl-[1,1′-biphenyl]-3,3′-diyl)bis(azanediyl))bis(1,7-naphthyridine-8,3-diyl))bis(methylene))bis(azanediyl))bis(3-hydroxybutanoic acid)]: the IC50 was < 25 nM.

Take `Cc1c(NC(=O)c2nc3c(s2)CN(CCCC(=O)O)CC3)cccc1-c1cccc(NC(=O)c2nc3c(s2)CN(CCCC(=O)O)CC3)c1C` [Example 78, 4,4′-((((2,2′-dimethyl-[1,1′-biphenyl]-3,3′-diyl)bis(azanediyl))bis(carbonyl))bis(6,7-dihydrothiazolo[5,4-c]pyridine-2,5(4H)-diyl))dibutyric acid]: the concentration for half-maximal inhibition (IC50) is < 25 nM.

Consider `Cc1c(Nc2nccc3cc(CNCC(=O)O)cnc23)cccc1-c1cccc(Nc2nccc3cc(CN4CCC4)cnc23)c1C` [Example 149, ((8-((3′-((3-(azetidin-1-ylmethyl)-1,7-naphthyridin-8-yl)amino)-2,2′-dimethyl-[1,1′-biphenyl]-3-yl)amino)-1,7-naphthyridin-3-yl)methyl)glycine], for which the concentration for half-maximal inhibition (IC50) was < 25 nM. Then `COC(=O)NC1(CN2CCc3nc(C(=O)N4CCc5c(-c6cccc7c6CCN7C(=O)c6nc7c(s6)CN(CC6(NC(=O)OC)CC6)CC7)cccc54)sc3C2)CC1` [Example 132, dimethyl (((([4,4′-biindoline]-1,1′-dicarbonyl)bis(6,7-dihydrothiazolo[5,4-c]pyridine-2,5(4H)-diyl))bis(methylene))bis(cyclopropane-1,1-diyl))dicarbamate], with 25 to 100 nM.
